ChEMBL document CHEMBL2021890, “A new class of prolylcarboxypeptidase inhibitors, part 1: discovery and evaluation” (Bioorg Med Chem Lett, 2012)
pIC50, pKi: −log10 of the molar value.

Experiments:
[1] = molecular target: T1, Lysosomal Pro-X carboxypeptidase (Mus musculus, UniProt Q7TMR0); assay: Inhibition of mouse PrCP
T1 sequence (Q7TMR0 whole entry): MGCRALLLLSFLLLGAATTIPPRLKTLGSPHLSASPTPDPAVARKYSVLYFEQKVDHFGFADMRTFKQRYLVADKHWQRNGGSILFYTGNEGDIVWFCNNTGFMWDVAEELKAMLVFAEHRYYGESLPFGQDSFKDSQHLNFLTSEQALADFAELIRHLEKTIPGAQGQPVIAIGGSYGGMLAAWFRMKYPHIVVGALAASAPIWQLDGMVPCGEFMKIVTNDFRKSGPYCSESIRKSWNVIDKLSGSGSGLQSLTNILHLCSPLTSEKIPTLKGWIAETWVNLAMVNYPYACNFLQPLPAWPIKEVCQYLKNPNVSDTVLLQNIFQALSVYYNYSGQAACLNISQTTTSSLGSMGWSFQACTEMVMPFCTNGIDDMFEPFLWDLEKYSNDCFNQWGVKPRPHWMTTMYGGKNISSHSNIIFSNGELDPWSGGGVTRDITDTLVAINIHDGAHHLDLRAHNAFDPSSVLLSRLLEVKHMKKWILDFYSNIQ

[2] = Metabolic stability in human liver microsomes after 30 mins by LC/MS analysis; type: ADME, Microsome; details: read-out: Stability
[3] = Plasma protein binding in 10% human plasma assessed as percentage unbound; type: ADME, cell-free
[4] = Metabolic stability in mouse liver microsomes after 30 mins by LC/MS analysis; type: ADME, Microsome; details: read-out: Stability
[5] = Plasma protein binding in 10% mouse plasma assessed as percentage unbound; type: ADME, cell-free
[6] = Oral bioavailability in mouse at 1 mg/kg; type: ADME, organism-based; details: in vivo
[7] = Half life in mouse at 0.5 mg/kg, iv and 1 mg/kg, po; type: ADME, organism-based; details: in vivo
[8] = test system: Mus musculus; assay: Dose normalized AUC in mouse at 1 mg/kg, po; type: ADME, organism-based; parameters: dose 1 mg/kg, route oral; details: in vivo
[9] = Clearance in mouse at 0.5 mg/kg, iv and 1 mg/kg, po; type: ADME, organism-based; details: in vivo
[10] = Volume of distribution in mouse at 0.5 mg/kg, iv and 1 mg/kg, po; type: ADME, organism-based; details: in vivo
[11] = molecular target: Mus musculus; assay: Ex-vivo inhibition of po dosed mouse PrCP in the absence of plasma by FRET analysis; type: functional, organism-based
[12] = molecular target: Mus musculus; assay: Ex-vivo inhibition of PrCP in heat inactivated 25% plasma of po dosed mouse by FRET analysis; type: functional, organism-based
[13] = molecular target: Mus musculus; assay: Ex-vivo inhibition of PrCP in heat inactivated 100% plasma of po dosed mouse by FRET analysis; type: functional, organism-based

SMILES	pIC50 [1]	remaining at 0.5 h [2]	fraction unbound [3]	remaining at 0.5 h [4]	fraction unbound [5]	bioavailability [6]	half-life [7]	AUC/dose [8]	clearance [9]	Vd [10]	pKi [11]	pKi [12]	pKi [13]
Cc1nc(C2CCN(C(=O)[C@@H]3CN(C(C)(C)C)C[C@H]3c3ccc(F)cc3F)CC2)n(-c2ccc(F)c(F)c2)n1	7.47	57%	0.7	47%	0.54	–	–	–	–	–	–	–	–
Cc1cc(C2CCN(C(=O)[C@@H]3CN(C(C)(C)C)C[C@H]3c3ccc(F)cc3F)CC2)n(-c2ccc(Cl)c(C)c2)n1	8.54	1%	0.04	18%	0.06	28%	3.1 h	0.1 µM·kg·h/mg	80 mL/min/kg	20 L/kg	–	–	–
Cc1cc(C2CCN(C(=O)[C@@H]3CN(C(C)(C)C)C[C@H]3c3ccc(F)cc3F)CC2)n(-c2ccc(Cl)cc2C)n1	8.64	–	–	–	–	37%	3.1 h	0.17 µM·kg·h/mg	65 mL/min/kg	17 L/kg	–	–	–
Cc1cc(C2CCN(C(=O)[C@@H]3CN(C(C)(C)C)C[C@H]3c3ccc(F)cc3F)CC2)n(-c2ccc(C)c(Cl)c2)n1	8.96	< 1%	0.05	1%	0.04	5.5%	2.1 h	0.01 µM·kg·h/mg	165 mL/min/kg	24 L/kg	–	–	–
Cc1cc(C2CCN(C(=O)[C@@H]3CN(C(C)(C)C)C[C@H]3c3ccc(F)cc3F)CC2)n(-c2cccc(Cl)c2)n1	7.89	–	–	–	–	–	–	–	–	–	–	–	–
Cc1cc(C2CCN(C(=O)[C@@H]3CN(C(C)(C)C)C[C@H]3c3ccc(F)cc3F)CC2)n(-c2ccc(Cl)cc2)n1	8.46	28%	0.11	37%	0.17	29%	3.9 h	0.24 µM·kg·h/mg	41 mL/min/kg	14 L/kg	–	–	–
CC(C)(C)N1C[C@@H](C(=O)N2CCC(c3nnnn3-c3ccc(Cl)cc3)CC2)[C@H](c2ccc(F)cc2F)C1	7.36	5%	0.32	10%	0.42	6.4%	1.8 h	0.01 µM·kg·h/mg	163 mL/min/kg	17 L/kg	–	–	–
Cc1cc(C2CCN(C(=O)[C@@H]3CN(C(C)(C)C)C[C@H]3c3ccc(F)cc3F)CC2)n(-c2ccc(Cl)c(Cl)c2)n1	9.00	45%	0.02	18%	0.019	38%	2.7 h	0.26 µM·kg·h/mg	43 mL/min/kg	11 L/kg	8.77	8.23	7.74
Cc1cc(C2CCN(C(=O)[C@@H]3CN(C(C)(C)C)C[C@H]3c3ccc(F)cc3F)CC2)n(-c2ccc(Cl)cc2Cl)n1	9.00	31%	0.1	39%	0.16	61%	3.1 h	0.31 µM·kg·h/mg	57 mL/min/kg	16 L/kg	8.96	8.64	8.22
Cc1cc(C2CCN(C(=O)[C@@H]3CN(C(C)(C)C)C[C@H]3c3ccc(F)cc3F)CC2)n(-c2ccc(F)cc2)n1	7.52	–	–	–	–	–	–	–	–	–	–	–	–
Cc1cc(C2CCN(C(=O)[C@@H]3CN(C(C)(C)C)C[C@H]3c3ccc(F)cc3F)CC2)n(-c2ccc(F)cc2F)n1	7.92	–	–	–	–	54%	2.5 h	0.26 µM·kg·h/mg	63 mL/min/kg	14 L/kg	8.28	8.12	7.84
Cc1cc(C2CCN(C(=O)[C@@H]3CN(C(C)(C)C)C[C@H]3c3ccc(F)cc3F)CC2)n(-c2ccc(Cl)cc2F)n1	8.70	–	0.17	–	0.21	43%	3.6 h	0.25 µM·kg·h/mg	51 mL/min/kg	16 L/kg	8.82	8.60	8.26
Cc1cc(C2CCN(C(=O)[C@@H]3CN(C(C)(C)C)C[C@H]3c3ccc(F)cc3F)CC2)n(-c2ccc(Cl)c(F)c2)n1	8.32	–	–	–	–	–	–	–	–	–	8.44	8.05	7.60
Cc1cc(C2CCN(C(=O)[C@@H]3CN(C(C)(C)C)C[C@H]3c3ccc(F)cc3F)CC2)n(-c2ccc(F)c(Cl)c2)n1	9.10	38%	0.16	43%	0.16	59%	3.1 h	0.26 µM·kg·h/mg	68 mL/min/kg	19 L/kg	9.05	8.89	8.60
Cc1cc(C2CCN(C(=O)[C@@H]3CN(C(C)(C)C)C[C@H]3c3ccc(F)cc3F)CC2)n(-c2cc(Cl)ccc2F)n1	8.85	34%	0.14	37%	0.09	–	–	–	–	–	8.92	8.80	8.55
Cc1cc(C2CCN(C(=O)[C@@H]3CN(C(C)(C)C)C[C@H]3c3ccc(F)cc3F)CC2)n(-c2cc(F)ccc2Cl)n1	8.07	–	–	–	–	–	–	–	–	–	–	–	–
Cc1nc(C2CCN(C(=O)[C@@H]3CNC[C@H]3c3ccc(F)cc3F)CC2)n(-c2ccc(Cl)cc2)n1	6.71	53%	0.12	82%	0.07	–	–	–	–	–	–	–	–
Cc1nc(C2CCN(C(=O)[C@@H]3CNC[C@H]3c3ccc(F)cc3F)CC2)n(-c2ccc(Cl)c(Cl)c2)n1	7.31	59%	–	58%	–	–	–	–	–	–	–	–	–
Cc1nc(C2CCN(C(=O)[C@@H]3CNC[C@H]3c3ccc(F)cc3F)CC2)n(-c2cc(Cl)ccc2Cl)n1	7.52	58%	–	56%	–	–	–	–	–	–	–	–	–
Cc1nc(C2CCN(C(=O)[C@@H]3CNC[C@H]3c3ccc(F)cc3F)CC2)n(-c2ccc(F)c(Cl)c2)n1	7.49	49%	–	57%	–	–	–	–	–	–	–	–	–
Cc1cc(C2CCN(C(=O)[C@@H]3CNC[C@H]3c3ccc(F)cc3F)CC2)n(-c2ccc(Cl)c(Cl)c2)n1	7.82	–	–	–	–	–	–	–	–	–	7.71	7.25	6.79
Cc1cc(C2CCN(C(=O)[C@@H]3CNC[C@H]3c3ccc(F)cc3F)CC2)n(-c2cc(Cl)ccc2Cl)n1	8.36	–	0.12	–	0.05	23%	1.4 h	0.04 µM·kg·h/mg	173 mL/min/kg	19 L/kg	8.38	8.05	7.64
Cc1cc(C2CCN(C(=O)[C@@H]3CNC[C@H]3c3ccc(F)cc3F)CC2)n(-c2ccc(F)c(Cl)c2)n1	8.10	–	–	–	–	–	–	–	–	–	8.08	7.70	7.26
O=C([C@@H]1CNC[C@H]1c1ccc(F)cc1F)N1CCC(c2ccnn2-c2ccc(F)c(Cl)c2)CC1	8.43	44%	0.12	59%	0.1	27%	1.6 h	0.16 µM·kg·h/mg	60 mL/min/kg	8 L/kg	8.54	8.11	7.66
Cc1nc(C2CCN(C(=O)[C@H]3CN(C(C)(C)C)C[C@@H]3c3ccc(F)cc3F)CC2)n(-c2ccc(Cl)c(C)c2)n1	7.96	29%	0.1	6%	0.19	13%	2.1 h	0.03 µM·kg·h/mg	127 mL/min/kg	20 L/kg	8.52	8.22	7.82
Cc1cc(-n2nc(C3CCN(C(=O)[C@@H]4CN(C(C)(C)C)C[C@H]4c4ccc(F)cc4F)CC3)nc2C)ccc1Cl	6.31	6%	0.11	36%	0.07	18%	1.7 h	0.05 µM·kg·h/mg	111 mL/min/kg	14 L/kg	–	–	–
Cc1nc(C2CCN(C(=O)[C@@H]3CN(C(C)(C)C)C[C@H]3c3ccc(F)cc3F)CC2)n(-c2ccc(Cl)cc2)n1	7.59	35%	0.25	46%	0.49	48%	1.9 h	0.16 µM·kg·h/mg	96 mL/min/kg	14 L/kg	–	–	–
